# Target: T1, AChE from Electrophorus electricus (Electrophorus electricus, UniProt O42275)
# T1 construct: purchased Sigma-Aldrich (St. Louis, MO, USA)
# Assay: biochemical
# Conditions: for IC50: Ellman's reagent, microplate, 37 °C, pH 7.5, read-out: half maximal inhibitory concentration (IC50) against AChE
# Procedure: Microplate assays utilizing Ellman’s reagent were performed to quantitatively assess the inhibitory activity of the isolated compounds against AChE [67].
# Ammonium thiocyanate, sodium thiosulfate pentahydrate, anhydrous sodium sulfate and iodine were purchased from Cicarelli Laboratorios (San Lorenzo, Santa Fe). AChE from Electrophorus electricus EC 3.1.1.7, Fast blue salt B (FBB), α-naphthol, α-naphthyl acetate (α-NAc), and CDCl3, were purchased from Sigma-Aldrich (St. Louis, MO, USA). Acetonitrile (LCMS grade) was acquired from Carlo Erba Reagents (Val de Reuil, France) and formic acid from Merck. Aluminium TLC sheets coated with Silica gel 60 F were purchased from Merck (Darmstadt, Germany). Agar was purchased from Britania (Bs. As., Argentina).
# Inhibition percentage determinations were carried out using the method applied by Osella et al.. Wells were filled in triplicate with AChE solution (in 0.1 M phosphate buffer, pH 7.5, and 13.7 µU/mL end concentration per well), Ellman’s reagent (DTNB, 5,5dithio-bis-(2-nitrobenzoic acid)), the same buffer solution (0.31 mM end concentration per well) and 10 µL of test compound in DMSO solution (0.05 µM end concentration per well). […] The enzymatic reaction was initiated by addition of acetylthiocholine iodide (0.46 mM end concentration per well). The final volume per well was 270 µL. The plate was shaken for 2 s and the increase in absorbance at 405 nm was monitored at 37 °C for 15 min. For IC50 determination, ten serial dilutions of the compounds were prepared in DMSO, following equally spaced points on a neperian logarithm scale, starting at 2.16 mM and finishing at 0.00023 mM (end concentration per well: 80.00 to 0.00839 µM). IC50 calculated using Prism V5.01 (GraphPad Software Inc., La Jolla, CA, USA) applying a non linear regression curve fit for a log[inhibitor] vs. normalized answer model with variable slope.
# T1 sequence (O42275 24-633): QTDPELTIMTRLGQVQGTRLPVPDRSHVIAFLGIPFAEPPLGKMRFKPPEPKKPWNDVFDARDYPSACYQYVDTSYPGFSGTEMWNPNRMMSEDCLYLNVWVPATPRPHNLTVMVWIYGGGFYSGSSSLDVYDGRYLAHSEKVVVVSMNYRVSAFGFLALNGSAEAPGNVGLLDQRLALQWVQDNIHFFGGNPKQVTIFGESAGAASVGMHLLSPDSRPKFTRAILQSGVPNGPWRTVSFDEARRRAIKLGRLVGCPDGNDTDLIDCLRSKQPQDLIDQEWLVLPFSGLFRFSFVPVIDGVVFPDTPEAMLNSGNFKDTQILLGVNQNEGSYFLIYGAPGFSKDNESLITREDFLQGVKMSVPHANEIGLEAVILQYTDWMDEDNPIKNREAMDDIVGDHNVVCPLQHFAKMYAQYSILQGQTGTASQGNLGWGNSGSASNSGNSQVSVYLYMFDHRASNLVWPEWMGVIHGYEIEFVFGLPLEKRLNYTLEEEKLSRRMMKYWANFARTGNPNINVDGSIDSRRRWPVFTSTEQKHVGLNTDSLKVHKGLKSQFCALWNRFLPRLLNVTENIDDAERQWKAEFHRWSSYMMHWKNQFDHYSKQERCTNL
SMILES,activity against AChE (in words),IC50 [µM]
"Cc1ccc(C(C)C)cc1O [carvacrol, reference compound]",inactive,
"Cc1cc(SC#N)c(C(C)C)cc1O [compound 1, 5-isopropyl-2-methyl-4-thiocyanatophenol]",,4.086 ± 0.035
"Cc1cc(Sc2cc(C)c(O)cc2C(C)C)c(C(C)C)cc1O [compound 2, 4,4′-thiobis(5-isopropyl-2-methylphenol)]",,0.158 ± 0.059
"Cc1cc(Sc2nsc(-c3cc(C)c(O)cc3C(C)C)n2)c(C(C)C)cc1O [compound 3, 4-((5-(4-hydroxy-2-isopropyl-5-methylphenyl)-1,2,4-thiadiazol-3-yl)thio)-5-isopropyl-2-methylphenol]",,0.056 ± 0.025
Cc1cc(Sc2nsc(Sc3cc(C)c(O)cc3C(C)C)n2)c(C(C)C)cc1O [compound 4],,0.034 ± 0.016

# — publication PMC11143095, “Chemically engineered essential oils prepared through thiocyanation under solvent-free conditions: chemical and bioactivity alteration” (Natural Products and Bioprospecting, 2024)
